Assays:
[1] = test system: human mammary cancer-derived KPL-4 cells; assay: Cell growth inhibition test with KPL-4 cells (WST-1); type: cell-based; details: KPL4, 72 hours, read-out: 50% growth inhibition concentration (GI50)
Procedure: In a 96-well plate (Nunc), human mammary cancer-derived KPL-4 cells were sown in an amount of 2000 cells/well, and pre-incubated in 10% fetal calf serum (FCS)-containing Dulbecco Modified Eagle Medium (DMEM) (incubation medium) in a 5% carbon dioxide incubator at 37° C. for 24 hours. A dimethylsulfoxide (DMSO) solution of a test compound controlled at 10 mmol/L was stepwise diluted with the incubation medium, and added to each well in a total amount of 100 μL/well, and incubated in the 5% carbon dioxide incubator at 37° C. for 72 hours. After the incubation, WST-1 {4-[3-(4-Iodophenyl)-2-(4-nitrophenyl)-2H-5-tetrazolio]-1,3-benzene disulfonate}-labeled mixture (Rosh Diagnostic) diluted 2-fold with the incubation medium was added thereto in an amount of 20 μL/well, and incubated in the 5% carbon dioxide incubator at 37° C. for 1 hour. Using a microplate spectrophotometer (Biorad's Model 550), the absorbance at 450 nm and 655 nm of each well was measured. The cell growth inhibition activity of the test compound was indicated by the 50% growth inhibition concentration (GI50) thereof. A method of calculating GI50 is described. The absorbance at 655 nm of each well was subtracted from the absorbance at 450 nm thereof to give a value (absorbance difference). The absorbance difference obtained with the cells without being treated with the test compound was taken as 100%, and this was compared with the absorbance difference obtained with the cells treated with the test compound to give the concentration of the compound for 50% cell growth inhibition, and this is referred to as GI50.

[2] = test system: human chronic myelocytic leukemia-derived K562 cells; assay: Cell growth inhibition test with K562 cells (WST-1); type: cell-based; details: 72 hours, read-out: 50% growth inhibition concentration (GI50)
Procedure: In a 96-well plate (Nunc), human chronic myelocytic leukemia-derived K562 cells were sown in an amount of 1500 cells/well, and pre-incubated in 10% FCS-containing Rosewell Park Memorial Institute's Medium (RPMI) 1640 (Nissui) (incubation medium) in a 5% carbon dioxide incubator at 37° C. for 5 hours. Next, a DMSO solution of a test compound controlled at 10 mmol/L was stepwise diluted with the incubation medium, and added to each well in a total amount of 100 μL/well, and further incubated in the 5% carbon dioxide incubator at 37° C. for 72 hours. After the incubation, WST-1-labeled mixture (Rosh Diagnostic) diluted 2-fold with the incubation medium was added thereto in an amount of 20 μL/well, and incubated in the 5% carbon dioxide incubator at 37° C. for 2 hours. Using a microplate spectrophotometer (Biorad's Model 550), the absorbance at 450 nm and 655 nm of each well was measured. The cell growth inhibition activity of the test compound was indicated by the 50% growth inhibition concentration (GI50) thereof, like in Test Example 2.

SMILES	GI50 [1]	GI50 [2]
CCc1c(O)cc(O)c(-c2ccccc2)c1CCOCC(N)=O [Compound 155, 2-[2-(2-Ethyl-3,5-dihydroxy-6-phenylphenyl)ethoxy]acetamide]	≤ 50 µM	
CCc1c(O)cc(O)c(-c2ccccc2)c1CCOCC(=O)N(C)C [Compound 157, 2-[2-(2-Ethyl-3,5-dihydroxy-6-phenylphenyl)ethoxy]-N,N-dimethylacetamide]	≤ 50 µM	
CCc1c(O)cc(O)c(-c2ccccc2)c1CCCOCC(N)=O [Compound 158, 2-[3-(2-Ethyl-3,5-dihydroxy-6-phenylphenyl)propoxy]acetamide]	≤ 50 µM	
CCc1c(O)cc(O)c(-c2ccccc2)c1CCCOCC(=O)N(C)C [Compound 160, 2-[3-(2-Ethyl-3,5-dihydroxy-6-phenylphenyl)propoxy]-N,N-dimethylacetamide]	≤ 50 µM	
CCc1c(O)cc(O)c(-c2ccccc2)c1CCCOCC(=O)NCCOC [Compound 168, 2-[3-(2-Ethyl-3,5-dihydroxy-6-phenylphenyl)propoxy]-N-(2-methoxyethyl)acetamide]	≤ 50 µM	
CCc1c(O)cc(O)c(-c2ccccc2)c1CCC(O)CC(O)CO (stereo not shown) [Compound 169, 6-Ethyl-4-phenyl-5-(3,5,6-trihydroxyhexyl)benzene-1,3-diol]	≤ 50 µM	
CCc1c(O)cc(O)c(-c2ccccc2)c1CCC(O)CC(O)CO (stereo not shown) [Compound 170, 6-Ethyl-4-phenyl-5-(3,5,6-trihydroxyhexyl)benzene-1,3-diol]		≤ 50 µM
CCc1c(O)cc(O)c(-c2ccccc2)c1CCOCCCOC [Compound 176, 6-Ethyl-5-[2-(3-methoxypropoxy)ethyl]-4-phenylbenzene-1,3-diol]	≤ 50 µM	
CCc1c(O)cc(O)c(-c2ccccc2)c1CC(O)CC(O)CO (stereo not shown) [Compound 177, 6-Ethyl-4-phenyl-5-(2,4,5-trihydroxypentyl)benzene-1,3-diol]	≤ 50 µM	
CCc1c(O)cc(O)c(-c2ccccc2)c1CCOCC(O)COCCO (stereo not shown) [Compound 179, 6-Ethyl-5-{2-[2-hydroxy-3-(2-hydroxyethoxy)propoxy]ethyl}-4-phenylbenzene-1,3-diol]	≤ 50 µM	
CCc1c(O)cc(O)c(-c2ccccc2)c1CC(O)C(O)CO (stereo not shown) [Compound 180, 6-Ethyl-4-phenyl-5-(2,3,4-trihydroxybutyl)benzene-1,3-diol]	≤ 50 µM	
CCc1c(O)cc(O)c(-c2ccccc2)c1CCC(O)C(O)CO (stereo not shown) [Compound 181, 6-Ethyl-4-phenyl-5-(3,4,5-trihydroxypentyl)benzene-1,3-diol]	≤ 50 µM	
CCc1c(O)cc(O)c(-c2ccccc2)c1CC(O)CO (stereo not shown) [Compound 182, 6-Ethyl-5-(2,3-dihydroxypropyl)-4-phenylbenzene-1,3-diol]	≤ 50 µM	
CCc1c(O)cc(O)c(-c2ccccc2)c1CCOC1OC(CO)C(O)C(O)C1O (stereo not shown) [Compound 183, 6-Ethyl-4-phenyl-5-{2-[3,4,5-trihydroxy-6-(hydroxymethyl)tetrahydropyran-2-yloxy]ethyl}benzene-1,3-diol]	≤ 50 µM	
CCc1c(O)cc(O)c(-c2ccccc2)c1CCC(O)C(CO)CO (stereo not shown) [Compound 185, 6-Ethyl-5-[3,5-dihydroxy-4-(hydroxymethyl)pentyl]-4-phenylbenzene-1,3-diol]	≤ 50 µM	
CCc1c(O)cc(O)c(-c2ccccc2)c1CCOCc1cccnc1 [Compound 188, 6-Ethyl-4-phenyl-5-[2-(pyridin-3-ylmethoxy)ethyl]benzene-1,3-diol]	≤ 50 µM	
CCc1c(O)cc(O)c(-c2cccc(OCc3ccccn3)c2)c1CCOCC(O)CO (stereo not shown) [Compound 190, 5-[2-(2,3-Dihydroxypropoxy)ethyl]-6-ethyl-4-[3-(pyridin-2-ylmethyloxy)phenyl]benzene-1,3-diol]	≤ 50 µM	
CCc1c(O)cc(O)c(-c2cccc(OCc3cccnc3)c2)c1CCOCC(O)CO (stereo not shown) [Compound 191, 5-[2-(2,3-Dihydroxypropoxy)ethyl]-6-ethyl-4-[3-(pyridin-3-ylmethyloxy)phenyl]benzene-1,3-diol]	≤ 50 µM	
CCc1c(O)cc(O)c(-c2cccc(OCc3ccncc3)c2)c1CCOCC(O)CO (stereo not shown) [Compound 192, 5-[2-(2,3-Dihydroxypropoxy)ethyl]-6-ethyl-4-[3-(pyridin-4-ylmethyloxy)phenyl]benzene-1,3-diol]	≤ 50 µM	

SMILES	GI50 [1]	GI50 [2]
CCc1c(O)cc(O)c(-c2cccc(OCc3csc(C)n3)c2)c1CCOCC(O)CO (stereo not shown) [Compound 193, 5-[2-(2,3-Dihydroxypropoxy)ethyl]-6-ethyl-4-[3-(2-methyl-1,3-thiazol-4-ylmethyloxy)phenyl]benzene-1,3-diol]	≤ 50 µM	
CCc1c(O)cc(O)c(-c2cccc(OCCO)c2)c1CCOCC(O)CO (stereo not shown) [Compound 194, 5-[2-(2,3-Dihydroxypropoxy)ethyl]-6-ethyl-4-[3-(2-hydroxyethoxy)phenyl]benzene-1,3-diol]	≤ 50 µM	
CCc1c(O)cc(O)c(-c2cccc(OCCN3CCOCC3)c2)c1CCOCC(O)CO (stereo not shown) [Compound 195, 5-[2-(2,3-Dihydroxypropoxy)ethyl]-6-ethyl-4-[3-(2-morpholinoethoxy)phenyl]benzene-1,3-diol]		≤ 50 µM
CCOC(=O)CCc1ccc(-c2c(O)cc(O)cc2COCc2ccccc2)o1 [Compound 236, Ethyl 3-{5-[6-(benzyloxymethyl)-2,4-dihydroxyphenyl]furan-2-yl}propanoate]	≤ 50 µM	
COC(=O)CCc1ccc(-c2c(O)cc(O)cc2C(OC)c2ccccc2)o1 (stereo not shown) [Compound 237, Methyl 3-{5-[2,4-dihydroxy-6-(1-methoxy-1-phenylmethyl)phenyl]furan-2-yl}propanoate]	≤ 50 µM	
CCN(CC)C(=O)Cc1c(Br)c(O)cc(O)c1-c1ccco1 [Compound 241, 2-[2-Bromo-6-(furan-2-yl)-3,5-dihydroxyphenyl]-N,N-diethylacetamide]	≤ 50 µM	
COc1cc(NC(=O)Cc2c(Br)c(O)cc(O)c2-c2ccco2)cc(OC)c1 [Compound 242, 2-[2-Bromo-6-(furan-2-yl)-3,5-dihydroxyphenyl]-N-(3,5-dimethoxyphenyl)acetamide]	≤ 50 µM	
COCCc1c(Br)c(O)cc(O)c1-c1ccco1 [Compound 243, 6-Bromo-4-(furan-2-yl)-5-(2-methoxyethyl)benzene-1,3-diol]	≤ 50 µM	
CCc1c(O)cc(O)c(-c2ccco2)c1CCOC [Compound 244, 6-Ethyl-4-(furan-2-yl)-5-(2-methoxyethyl)benzene-1,3-diol]	≤ 50 µM	
CCc1c(O)cc(O)c(-c2ccco2)c1CC(=O)N(C)CCOC [Compound 257, 2-[2-Ethyl-6-(furan-2-yl)-3,5-dihydroxyphenyl]-N-(2-methoxyethyl)-N-methylacetamide]	≤ 50 µM	
COC(=O)CCc1ccc(-c2c(O)cc(O)cc2CC(=O)OC)o1 [Compound 260, Methyl 3-{5-[2,4-dihydroxy-6-(methoxycarbonylmethyl)phenyl]furan-2-yl}propanoate]	≤ 50 µM	
COC(=O)CCc1ccc(-c2c(O)cc(O)c(Br)c2CC(=O)OC)o1 [Compound 267, Methyl 3-{5-[5-bromo-2,4-dihydroxy-6-(methoxycarbonylmethyl)phenyl]furan-2-yl}propanoate]	≤ 50 µM	
COC(=O)Cc1cc(O)cc(O)c1-c1ccc2c(c1)OCO2 [Compound 273, Methyl 2-(1,3-benzodioxolan-5-yl)-3,5-dihydroxyphenylacetate]	≤ 50 µM	
CCc1cc(-c2n[nH]c3ccc([N+](=O)[O-])cc23)c(O)cc1O [Compound 277, 6-Ethyl-4-(5-nitro-1H-indazol-3-yl)benzene-1,3-diol]	≤ 50 µM	
CCc1cc(-c2nc3ccccc3[nH]2)c(O)cc1O [Compound 278, 4-Benzimidazol-2-yl-6-ethylbenzene-1,3-diol]	≤ 50 µM	
CCc1cc(-c2nc3ccccc3n2-c2ccccc2)c(O)cc1O [Compound 279, 6-Ethyl-4-(1-phenylbenzimidazol-2-yl)benzene-1,3-diol]	≤ 50 µM	
CCc1c(O)cc(O)c(-c2ncc(-c3ccccc3)o2)c1CC(=O)OC [Compound 329, Methyl 2-ethyl-3,5-dihydroxy-6-(5-phenyl-1,3-oxazol-2-yl)phenylacetate]	≤ 50 µM	
CCc1c(O)cc(O)c(-c2n[nH]c3cc(OC)ccc23)c1CCOCC(O)CO (stereo not shown) [Compound 330, 5-[2-(2,3-Dihydroxypropoxy)ethyl]-6-ethyl-4-(6-methoxy-1H-indazol-3-yl)benzene-1,3-diol]	≤ 50 µM	

Source: patent US7538241B2, “Hsp90 family protein inhibitors” (Kyowa Hakko Kogyo Co., Ltd., priority 2003, dated 2009)
